The values below come from patent publication US9416154B2, “5′-substituted nucleoside derivatives and methods of use thereof for the treatment of viral diseases” (priority 2011, dated 2016).

Like-named read-outs stand apart in the source and are kept apart here.

The test system of one data set is HCV replicon (1b). Briefly: Cell-based HCV replicon assay. How it is done: To measure cell-based anti-HCV activity of selected compounds of the present invention, replicon cells were seeded at 5000 cells/well in 96-well collagen I-coated Nunc plates in the presence of the test compound. Various concentrations of test compound, typically in 10 serial 2-fold dilutions, were added to the assay mixture, with the starting concentration ranging from 250 μM to 1 μM. The final concentration of dimethylsulfoxide was 0.5%, fetal bovine serum was 5%, in the assay media. Cells were harvested on day 3 by the addition of 1× cell lysis buffer (Ambion cat #8721). The replicon RNA level was measured using real time PCR (Taqman assay). The amplicon was located in 5B. The PCR primers were: 5B.2F, ATGGACAGGCGCCCTGA (SEQ ID. NO. 1); 5B.2R, […] (SEQ ID. NO. 2); the probe sequence was FAM-labeled CACGCCATGCGCTGCGG (SEQ ID. NO. 3). GAPDH RNA was used as endogenous control and was amplified in the same reaction as NS5B (multiplex PCR) using primers and VIC-labeled probe recommended by the manufacturer (PE Applied Biosystem). The real-time RT-PCR reactions were run on ABI PRISM 7900HT Sequence Detection System using the following program: 48° C. for 30 minutes, 95° C. for 10 minutes, 40 cycles of 95° C. for 15 sec, 60° C. for 1 minute. The ΔCT values (CT5B-CTGAPDH) were plotted against the concentration of test compound and fitted to the sigmoid dose-response model using XLfit4 (MDL). EC50 was defined as the concentration of inhibitor necessary to achieve ΔCT=1 over the projected baseline; EC90 the concentration necessary to achieve ΔCT=3.2 over the baseline. Alternatively, to quantitate the absolute amount of replicon RNA, a standard curve was established by including serially diluted T7 transcripts of replicon RNA in the Taqman assay. All Taqman reagents were from PE Applied Biosystems. Such an assay procedure was described in detail in e.g. Malcolm et al., Antimicrobial Agents and Chemotherapy 50: 1013-1020 (2006).
(Replicon systems follow genome replication, usually without infectious particles.)

Data set [1] deals with Huh 7 hepatoma cells containing the subgenomic HCV replicon. Description: Cytotoxicity (MTS assay or GAPDH RNA readout). Type of data set: cell-based. How it is done:
(§1) The effect of the nucleoside derivatives on the proliferation and metabolism of Huh 7 hepatoma cells containing the subgenomic HCV replicon was measured using the MTS assay. Briefly, cells were seeded and dosed with compounds exactly as described in Example 13 above, for replicon EC50 determination. After a 3-day compound incubation period, the MTS assay was performed in accordance with the manufacturer's protocol for the CellTiter 96 Aqueous One Solution Cell Proliferation Assay (Promega, Catalog #G358). Alternatively, after a 3-day compound incubation, the amount of glyceraldehyde-3-phosphate dehydrogenase (GAPDH) RNA in replicon-containing Huh 7 cells was determined using qRT-PCR. CC50 values were derived from 10 serial 2-fold dilutions of the inhibitor in duplicate that yielded 50% inhibition of the MTS or GAPDH RNA readout by comparison with cells treated with vehicle control.

Data set [2] addresses HCV NS5B RNA-dependent RNA polymerase (1b-BKΔ55) (Hepatitis C virus genotype 1b (isolate BK) (HCV), UniProt P26663). Briefly: HCV NS5B polymerase inhibition assay (radiolabeled nucleotide incorporation). Type of data set: biochemical. The conditions noted are these: 5 nM NS5B (1b-BKΔ55), [33P]-CTP incorporation, room temperature 1 hour. How it is done:
The ability of the nucleoside triphosphate derivatives to inhibit the enzymatic activity of the HCV NS5B RNA-dependent RNA polymerase was measured in a radiolabeled nucleotide incorporation assay modified from the method described in International Publication No. WO2002/057287. Briefly, 50 μL reactions containing 20 mM HEPES (pH 7.3), 7.5 mM DTT, 20 units/mL RNasIN, 1 μM each of ATP, GTP, UTP and CTP, 20 μCi/mL [^33P]-CTP, 10 mM MgCl2, 60 mM NaCl, 100 μg/ml BSA, 0.021 μM DCoH heteropolymer RNA template and 5 nM NS5B (1b-BKΔ55) enzyme were incubated at room temperature for 1 hour. Assay was terminated by the addition of 500 mM EDTA (50 μL). The reaction mixture was transferred to a Millipore DE81 filter plate and the incorporation of labeled CTP was determined using Packard TopCount. Compound IC50 values were calculated from experiments with 10 serial 3-fold dilutions of the inhibitor in duplicate.

Data set [3] in a line: Cytotoxicity (MTS assay or GAPDH RNA readout). Format: cell-based. The conditions noted are these: human, replicon-containing Huh 7 cells, 3-day incubation, MTS or GAPDH RNA readout; read-out: 1b CC50. As for the experimental part:
as §1
In general terms: Formazan colour is commonly taken as a measure of viable cells.

Setting [4] is: replicon cells, 3-day incubation, replicon RNA by real time PCR (Taqman), read-out: 1b EC50.
[5] abbreviates: replicon-containing Huh 7 cells, 3-day incubation, MTS or GAPDH RNA readout, read-out: 1b CC50.
[6] abbreviates: Hepatitis C virus, 72 h, read-out: 1b EC50, replicon cells, 3-day incubation, replicon RNA by real time PCR (Taqman).
Where [7] appears, read: read-out: 1b EC50, replicon cells, 3-day incubation, replicon RNA by real time PCR (Taqman).

In general, EC50 refers to the concentration needed to bring the measured effect to its halfway point. Usually CC50 stands for the concentration at which the toxic effect on the cells reaches its halfway point. For orientation: IC50 means the midpoint of a concentration-inhibition curve. A higher IC50 goes with weaker potency.

Chain of HCV NS5B RNA-dependent RNA polymerase (1b-BKΔ55) (P26663 2420-2955): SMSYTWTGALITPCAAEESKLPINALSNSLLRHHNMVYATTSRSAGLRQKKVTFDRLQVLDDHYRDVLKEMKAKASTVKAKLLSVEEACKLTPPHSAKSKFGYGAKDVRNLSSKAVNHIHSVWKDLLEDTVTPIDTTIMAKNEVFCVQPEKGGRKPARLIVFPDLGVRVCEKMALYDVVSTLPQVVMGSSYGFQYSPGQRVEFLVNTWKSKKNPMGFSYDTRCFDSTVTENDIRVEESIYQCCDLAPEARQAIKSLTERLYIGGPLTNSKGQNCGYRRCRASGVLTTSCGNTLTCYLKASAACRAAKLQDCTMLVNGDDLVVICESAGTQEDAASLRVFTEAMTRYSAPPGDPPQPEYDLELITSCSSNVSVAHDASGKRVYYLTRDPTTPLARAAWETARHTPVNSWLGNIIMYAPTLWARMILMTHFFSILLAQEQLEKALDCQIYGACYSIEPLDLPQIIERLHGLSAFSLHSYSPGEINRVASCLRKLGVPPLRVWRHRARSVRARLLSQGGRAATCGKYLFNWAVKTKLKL

For the molecule `C[C@@H](O)[C@H]1O[C@@H](n2ccc3c(N)ncnc32)[C@](C)(O)[C@@H]1O` [Compound 1], the EC50 with HCV replicon (1b) (setting [4]) stood at 61 µM. Also, it took 78 µM to reach half-maximal cytotoxicity in data set [1] (CC50).

Turning to `CCCCOC(=O)[C@H](C)NP(=O)(Oc1cccc2ccccc12)O[C@H](C)[C@H]1O[C@@H](n2ccc3c(N)ncnc32)[C@](C)(O)[C@@H]1O` (stereo partly drawn) [Compound 2], the concentration for a half-maximal effect (EC50) in the data set on HCV replicon (1b) (setting [4]) is 33 µM. For the same molecule, the CC50 in data set [1] (setting [5]) was 44 µM.

As for `C[C@H](O)[C@H]1O[C@@H](n2cc(F)c3c(N)ncnc32)[C@](C)(O)[C@@H]1O` [Compound 9], the EC50 in the data set with HCV replicon (1b) (setting [4]) was above 100 µM. In data set [1], this molecule yielded a CC50 above 100 µM.

`CC(O)[C@H]1O[C@@H](n2cc(I)c3c(N)ncnc32)[C@](C)(F)[C@@H]1O` (stereo partly drawn) [Compound 13]: the EC50 in the data set on HCV replicon (1b) (setting [4]) came to 58 µM. In data set [1], the CC50 turned out to be 30 µM.

Turning to `CC(OP(=O)(O)OP(=O)(O)OP(=O)(O)O)[C@H]1O[C@@H](n2ccc3c(N)ncnc32)[C@](C)(F)[C@@H]1O` (stereo partly drawn) [Compound 15], the IC50 in data set [2] was above 20 µM.

With `CCOC(=O)[C@H](C)NP(=O)(Oc1ccccc1)OC(C)[C@H]1O[C@@H](n2ccc3c(N)ncnc32)[C@](C)(F)[C@@H]1O` (stereo partly drawn) [Compound 16], the EC50 in the data set on HCV replicon (1b) (setting [4]) was above 100 µM. In data set [1], the CC50 is above 100 µM.

Turning to `CC(O)C1O[C@@H](n2cc(F)c3c(N)ncnc32)[C@](C)(F)[C@@H]1O` (stereo partly drawn) [Compound 24], in the data set with HCV replicon (1b) (setting [4]), the EC50 is above 100 µM. In addition, in data set [1] (setting [5]), the cytotoxic concentration (CC50) is above 100 µM.

Turning to `C[C@H](O)C1O[C@@H](n2cc(F)c3c(N)ncnc32)[C@](C)(F)[C@@H]1O` (stereo partly drawn) [Compound 25], the EC50 with HCV replicon (1b) (setting [4]) is above 100 µM. The CC50 in data set [1] (setting [5]) was above 100 µM.

With `C[C@@H](O)C1O[C@@H](n2cc(F)c3c(N)ncnc32)[C@](C)(F)[C@@H]1O` (stereo partly drawn) [Compound 26], in the data set with HCV replicon (1b) (setting [4]), the EC50 is above 100 µM. The CC50 in data set [1] is above 100 µM.

For the molecule `C[C@@H](O)C1O[C@@H](n2ccc3c(N)ncnc32)[C@](C)(O)[C@@H]1O` (stereo partly drawn) [Compound 27], the EC50 in the data set on HCV replicon (1b) (setting [4]) was above 100 µM. The CC50 in data set [1] (setting [5]) was above 100 µM.

Turning to `C[C@H](O)C1O[C@@H](n2ccc3c(N)ncnc32)[C@](C)(O)[C@@H]1O` (stereo partly drawn) [Compound 28], the EC50 in the data set on HCV replicon (1b) (setting [4]) was above 100 µM. This molecule also yielded a CC50 in data set [1] above 100 µM.

Take `CC(C)(O)[C@H]1O[C@@H](n2ccc3c(N)ncnc32)[C@](C)(F)[C@@H]1O` [Compound 30]: in the data set with HCV replicon (1b) (setting [4]), the concentration giving a half-maximal response (EC50) was above 100 µM. The same molecule registered a CC50 in data set [1] above 100 µM.

In the case of `CC(C)(O)[C@H]1O[C@@H](n2ccc3c(N)ncnc32)[C@](C)(O)[C@@H]1O` [Compound 31], in the data set on HCV replicon (1b) (setting [4]), the EC50 is above 100 µM. In data set [1], this molecule displayed a CC50 above 100 µM.

Take `CC(C)OC(=O)[C@H](C)NP(=O)(Oc1cccc2ccccc12)OC(C)(C)[C@H]1O[C@@H](n2ccc3c(N)ncnc32)[C@](C)(F)[C@@H]1O` (stereo partly drawn) [Compound 32]: in the data set with HCV replicon (1b) (setting [6]), the EC50 is above 20 µM. In addition, in data set [3], the CC50 at 3 day is above 20 µM.

Regarding `CC(O)[C@H]1O[C@@H](n2cc(-c3cc[nH]n3)c3c(N)ncnc32)[C@](C)(F)[C@@H]1O` (stereo partly drawn) [Compound 33], in the data set with HCV replicon (1b) (Hepatitis C virus, 72 h, replicon cells, 3-day incubation, replicon RNA by real time PCR (Taqman), read-out: 1b EC50), the EC50 was above 100 µM. For the same molecule, in data set [3], the CC50 at 3 day is above 100 µM.

As for `COC(=O)[C@H](C)NP(=O)(Oc1ccccc1)O[C@H](C)[C@H]1O[C@@H](n2ccc3c(N)ncnc32)[C@](C)(O)[C@@H]1O` (stereo partly drawn) [Compound 34], the EC50 in the data set with HCV replicon (1b) (setting [6]) is above 100 µM. Also, the CC50 at 3 day in data set [3] was above 100 µM.

With `COC(=O)[C@H](C)NP(=O)(Oc1ccccc1)O[C@@H](C)[C@H]1O[C@@H](n2ccc3c(N)ncnc32)[C@](C)(O)[C@@H]1O` (stereo partly drawn) [Compound 35], in the data set on HCV replicon (1b) (setting [6]), the EC50 is above 100 µM. The CC50 at 3 day in data set [3] is above 100 µM.

On to `C[C@@H](OP(=O)(O)OP(=O)(O)OP(=O)(O)O)[C@H]1O[C@@H](n2ccc3c(N)ncnc32)[C@](C)(O)[C@@H]1O` [Compound 36], for which it took 65 µM to reach half-maximal inhibition in data set [2] (IC50).

On to `C[C@H](OP(=O)(O)OP(=O)(O)OP(=O)(O)O)[C@H]1O[C@@H](n2ccc3c(N)ncnc32)[C@](C)(O)[C@@H]1O` [Compound 37], for which the IC50 in data set [2] came out at 40 µM.

For `CCOC(=O)[C@H](C)NP(=O)(Oc1ccccc1)O[C@H](C)[C@H]1O[C@@H](n2ccc3c(N)ncnc32)[C@](C)(O)[C@@H]1O` (stereo partly drawn) [Compound 38], the EC50 in the data set on HCV replicon (1b) (setting [6]) is above 100 µM. Moreover, the half-maximal cytotoxic concentration (CC50) at 3 day in data set [3] was above 100 µM.

In the case of `CCOC(=O)[C@H](C)NP(=O)(Oc1ccccc1)O[C@@H](C)[C@H]1O[C@@H](n2ccc3c(N)ncnc32)[C@](C)(O)[C@@H]1O` (stereo partly drawn) [Compound 39], in the data set with HCV replicon (1b) (setting [6]), the concentration giving a half-maximal response (EC50) is above 100 µM. Further, in data set [3], the 50% cytotoxic concentration (CC50) at 3 day was above 100 µM.

Consider `COC(=O)[C@H](C)NP(=O)(Oc1ccccc1)OC(C)[C@H]1O[C@@H](n2ccc3c(N)ncnc32)[C@](C)(O)[C@@H]1O` (stereo partly drawn) [Compound 40], for which the EC50 with HCV replicon (1b) (setting [6]) is 21 µM. Moreover, the CC50 at 3 day in data set [3] is above 100 µM.

As to `CC(OP(=O)(N[C@@H](C)C(=O)OCC(C)(C)C)Oc1ccccc1)[C@H]1O[C@@H](n2ccc3c(N)ncnc32)[C@](C)(O)[C@@H]1O` (stereo partly drawn) [Compound 41], the EC50 in the data set on HCV replicon (1b) (setting [6]) was determined as 18 µM. In addition, the CC50 at 3 day in data set [3] is above 100 µM.

Regarding `COC(=O)[C@H](C)NP(=O)(Oc1cccc2ccccc12)OC(C)[C@H]1O[C@@H](n2ccc3c(N)ncnc32)[C@](C)(O)[C@@H]1O` (stereo partly drawn) [Compound 42], the EC50 in the data set on HCV replicon (1b) (setting [6]) was 4.8 µM. In addition, in data set [3], the CC50 at 3 day was above 100 µM.

With `CC(C)OC(=O)[C@H](C)NP(=O)(Oc1ccccc1)OC(C)[C@H]1O[C@@H](n2ccc3c(N)ncnc32)[C@](C)(O)[C@@H]1O` (stereo partly drawn) [Compound 43], the 50% effective concentration (EC50) in the data set on HCV replicon (1b) (setting [6]) was found to be 14 µM. In data set [3], the CC50 at 3 day was 98 µM.

Turning to `CCCCOC(=O)[C@H](C)NP(=O)(Oc1cccc2ccccc12)OC(C)[C@H]1O[C@@H](n2ccc3c(N)ncnc32)[C@](C)(O)[C@@H]1O` (stereo partly drawn) [Compound 44], the EC50 in the data set on HCV replicon (1b) (setting [7]) stood at 2 µM. The CC50 at 3 day in data set [3] came to 51 µM.

Take `CCCCOC(=O)[C@H](C)NP(=O)(Oc1cccc2ccccc12)OC(C)[C@H]1O[C@@H](n2ccc3c(N)ncnc32)[C@](C)(O)[C@@H]1O` (stereo partly drawn) [Compound 45]: the EC50 in the data set on HCV replicon (1b) (setting [7]) came to 22 µM. For the same molecule, in data set [1] (setting [5]), the CC50 was above 100 µM.
